Starred links: 1 amine or outer side, 2 acyl side, 3 side chain; linkers in the order of their positions; H or OH if unused. Positions of bridges follow the written chain, without caps; N, C: chain ends. Non-standard residues stand in square brackets, D forms with d. Residues, ends and D or L forms follow the SMILES beside them. Chains are numbered I, II in the order given. X1 = O=C(O)C[C@@H](C(=O)[*:2])N(c1ccc([N+](=O)[O-])c2nonc12)[*:1]; Nle = CCCC[C@H](N)C(=O)O; Aib = CC(C)(N)C(=O)O
Assays:
[1] = tested on: sEVs; conditions: previous data; cited from earlier work
[2] = tested on: EVs; conditions: placed in cultured media without separation steps; cited from earlier work
[3] = ζ-potential measurement; assay type: physicochemical; conditions: non- and DiD-labeled MSC-sEVs; Zetasizer Nano ZS, 25 °C; n = 5
[4] = tested on: cancer cells; experiment: sEV drug-loading system with a hydrophobic compound; assay type: cell-based; conditions: compound loaded onto sEVs; data not shown
[5] = tested on: HeLa cells; experiment: Membrane perturbation assay; assay type: cell-based; conditions: PI 3.5 µM, 30 min, 37 °C, CLSM, n = 37–65 cells
[6] = tested on: PANC-1 cells; experiment: Membrane perturbation assay; assay type: cell-based; conditions: PI 3.5 µM, 30 min, 37 °C, CLSM, n = 28–58 cells
[7] = tested on: sEV-mimicking liposomes (POPC:cholesterol:POPS = 75:15:10 mol%); experiment: Peptide binding to sEV-mimicking liposomes; conditions: ratio of Kd values for sEV-mimicking liposomes
[8] = tested on: HeLa cells; experiment: Cellular uptake by CLSM; assay type: cell-based; conditions: 2 at 1 µM alone, 37 °C, more than 1 h
[9] = tested on: PANC-1 cells; experiment: Cellular uptake by CLSM; assay type: cell-based; conditions: 2 at 1 µM alone, 37 °C, more than 1 h
[10] = tested on: MSC-sEVs; experiment: sEV binding of 2 in solution in the presence of heparin; conditions: heparin 100 or 500 µg/mL; n = 3

Molecule: CCCC[C@H](NC(=O)[C@H](CCCCN)NC(=O)[C@H](CO)NC(=O)[C@H](CC(C)C)NC(=O)C(C)(C)NC(=O)[C@H](CC(=O)O)NC(=O)[C@@H](NC(=O)C(C)(C)NC(=O)[C@H](CCCCN)NC(=O)[C@H](CC(N)=O)NC(=O)[C@H](CC(C)C)NC(=O)[C@H](CCCC)NC(=O)[C@H](CCCCN)NC(=O)[C@H](CC(C)C)NC(=O)[C@H](CC(C)C)NC(=O)C(C)(C)NC(=O)[C@H](CCCCN)NC(=O)[C@H](CC(=O)O)Nc1ccc([N+](=O)[O-])c2nonc12)[C@@H](C)O)C(=O)NCC(=O)N[C@@H](CO)C(=O)NCC(=O)N[C@@H](CO)C(=O)N[C@@H](CCCCN)C(N)=O [Peptide 1] (HELM PEPTIDE1{[O=C(O)C[C@H](Nc1ccc([N+](=O)[O-])c2nonc12)C(=O)[*:2]].K.[Aib].L.L.K.[Nle].L.N.K.[Aib].T.D.[Aib].L.S.K.[Nle].G.S.G.S.K.[am]}$$$$V2.0)
- amount of peptide bound at the plateau level [1]: 1,361 peptides/vesicle
- time to selective binding to EVs [2]: ≤ 5 min

Molecule: DKBLLKXLNKBTDBLSKX-GSGS-C-NH2 (disulfide) [2′]
- change of ζ-potential of sEVs in the presence of the peptide [3]: slight increase in ζ-potential

Molecule: CC[C@@]1(O)C(=O)OCc2c1cc1n(c2=O)Cc2cc3ccccc3nc2-1 [camptothecin]
- performance of the sEV drug-loading system [4]: did not work effectively

Molecule: biotin-LSQETFZ’DLWKLLZEN-NH2 (sidechain bridge or staple) [Peptide 9]
- ratio of the dead cells stained by PI [5]: 6.5%
- ratio of the dead cells stained by PI [6]: 3.3%

Molecule: CO [MeOH]
- ratio of the dead cells stained by PI [5]: 96.5%
- ratio of the dead cells stained by PI [6]: 97.3%

Molecule: I: H-[X1]K[Aib]LLK[Nle]LNK[Aib]TD[Aib]LSK[Nle]GSGSC-NH2 / II: H-[X1]K[Aib]LLK[Nle]LNK[Aib]TD[Aib]LSK[Nle]GSGSC-NH2 (disulfide I:23-II:23) [Peptide 2]
- affinity relative to that of 1 [7]: 15.7 fold
- NBD signals in cells in the absence of DiD-MSC-sEVs (uptake of peptide alone) [8]: negligible
- NBD signals in cells in the absence of DiD-MSC-sEVs (uptake of peptide alone) [9]: negligible

Molecule: Heparin
- fluorescence intensity of NBD of 2 in the presence of MSC-sEVs in solution [10]: did not influence

Molecule: biotin-DKBLLKXLNKBTDBLSKX-GSGS-C-NH2 | biotin-DKBLLKXLNKBTDBLSKX-GSGS-C-NH2 (disulfide) [Peptide 8]
- ratio of the dead cells stained by PI [5]: 0.0%
- ratio of the dead cells stained by PI [6]: 1.9%

Molecule: biotin-IWIAQELRRIGDEFNZYYAZR-NH2 (sidechain bridge or staple) [Peptide 10]
- ratio of the dead cells stained by PI [5]: 4.5%
- ratio of the dead cells stained by PI [6]: 7.1%

Reference: doi:10.1101/2025.08.06.669005v1 (bioRxiv, 2025)
